This assay concerns human CD34+ cells. In words: Expansion of CD34+ cells into MKPs in serum-free culture. In kind it is cell-based. Particulars: 60 ng/ml IL-9 with TPO mimetic and IL-1, 8 days, 3 donors. An excerpt: Isolation of human CD34^+ cells. G-CSF mobilized peripheral blood was harvested from healthy donors via leukapheresis (see, e.g., Kawamoto et al. (2009) Stem Cells 27:2857). CD34+ cells were positively selected using magnetic beads (Dynal, Lake Success, N.Y.) linked to anti-CD34 monoclonal antibody on an Isolex Device (Baxter, Deerfield, Ill.). […] Aliquots of 15-20×10^6 cells/ml were cryopreserved until use.
Expansion of CD34^+ cells. CD34^+ cells from donors were thawed, pooled as indicated, and seeded at 5×10^5 cells/ml in serum-free X-vivo 15 medium (Lonza, Walkersville, Md.) supplemented with IX GlutaMAX (Invitrogen, Carlsbad, Calif.). Cytokines were added as follows. […] Cultures were incubated at 37° C. in a humidified atmosphere containing 5% carbon dioxide. Viable cells were counted daily and cell concentration was readjusted to about 5×10^5 cells/ml by the addition of fresh medium with cytokines.
Analysis of MKPs. Cell surface marker expression was analyzed by flow cytometry using CD15b, CD33, CD34, CD41, CD42a, CD90, and CD184 antibodies. Prior to antibody staining, cells were washed with HBSS containing 2% BSA and blocked with rat and mouse IgG (SouthernBiotech, Birmingham, AL) for 10 minutes at 4° C. […]

From patent US20140205582A1, “MEGAKARYOCYTE PROGENITOR CELLS FOR PRODUCTION OF PLATELETS” (CELLERANT THERAPEUTICS, INC., priority 2011, published 2014) come the findings set out here.

Entries after “also recorded” stand apart in the source; their conditions may differ.

Consider “IL-9: interleukin-9 cytokine, also known as megakaryoblast growth factor”, for which the “effect on number of MKPs” value is “increased the number of MKPs from all 3 donors; also recorded: increases the size of all populations”.
